Here are results for nine compounds from paper PMC11795524, “Melanin-Binding-Based Discovery of Topically Instilled Carbonic Anhydrase Inhibitors for Targeted Delivery and Prolonged Action in the Eye” (Molecular Pharmaceutics, 2025).

The conditions of data set [1]: topical, rabbits; cited from earlier work.
Data set [2] in a line: In vitro melanin binding by microscale thermophoresis / initial fluorescence (Monolith NT.115 pico). The settings on record: for Kd: IF or MST mode, 68% confidence; for Melanin binding classification: class by Kd. The text has this:
Melanin binding of the CAI-II compounds was studied with a Monolith NT.115 pico (NanoTemper Technologies GmbH, Munich, Germany) device using the method of […] et al. […] Otherwise, normalized fluorescence signals and the ratio of relative fluorescence after heating (MST mode) were used. The MST software was used in expert mode to allow heating for 30 s. […] As ligand autofluorescence may interfere with the assay, their autofluorescence values were pretested with the detector used in experiment (nanoblue or pico-red). Fluorescence of the ligand should be below 20% of melanin fluorescence. Sample aggregation and adsorption to the capillaries were used also as exclusion criteria.
(In general: In MST a laser heats a spot of the sample, and binding alters the fluorescence response.)

Data set [3] has as its system albino rabbits. The arrangement: method as in PMID 1263134, PMID 955835. The settings on record: topical eye drops; cited from earlier work.
Data set [4] relates to pigmented rabbits. Further details: method as in PMID 1263134, PMID 955835. The settings on record: topical eye drops; cited from earlier work.
Data set [5] addresses T1, human carbonic anhydrase II (Homo sapiens, UniProt P00918).
T1 construct: purchased Sigma
Nature of the data set: Multiparametric surface plasmon resonance (MP-SPR) interaction kinetics with immobilized hCAII. It is filed as binding. The conditions noted are these: MP-SPR, 25 °C, 1:1 model; for Kd: read-out: KD. As to the method: All MP-SPR measurements were conducted at 25 °C using carboxymethyl dextran hydrogel-coated (CMD-3DM) sensors (BioNavis) and were based on the protocol described by Rogez-Florent et al.[22]
Human carbonic anhydrase isoenzyme II (Sigma) was immobilized using a standard amine coupling procedure with the Amine Coupling Kit (BioNavis) and phosphate buffered saline (PBS) (20 mM phosphate buffer, 150 mM NaCl, pH 7.4) as the background buffer. Before immobilization, the sensor surface was cleaned with 2 M sodium chloride and 10 mM sodium hydroxide for 6 min at a flow rate of 30 μL/min. Then, a constant flow rate of 10 μL/min was maintained throughout the immobilization steps. The surface was activated for 7 min with 200 mM 1-ethyl-3-(3-(dimethylamino)propyl)-carbodiimide (EDC) and 50 mM N-hydroxysuccinimide, immediately followed by a 5 min injection of 45 μg/mL hCAII solution in 10 mM acetate buffer, pH 5.5. In the reference flow channel, no enzyme was immobilized. Residual activated groups of the dextran matrix were deactivated by a 7 min injection of 1 M ethanolamine HCl, pH 8.3.
For analyzing CAIs, 1% (v/v) DMSO in PBS, pH 7.4, was used as a running buffer. All CAIs were dissolved in 100% DMSO and stored as 50 mM stock solutions. These stock solutions were further diluted with the running buffer and analyzed using a 3-fold (3–1000 nM) dilution series. […] Each analyte was injected at a flow rate of 100 μL/min, with an association time of 2 min and a dissociation time of 10 min. […] Seven concentrations were measured for each CAI per cycle, and a “wash all” step with running buffer was performed at the end of each cycle to minimize the carry over effects. Each CAI were assayed in triplicate across three independent experiments.
The acquired data were processed using MP-SPR Navi Data Viewer software (version 6.7.0.1, BioNavis) employing the weighted centroid method for determining the SPR peak angular position. Signals from the reference flow channel were subtracted from the corresponding signals of the flow channel containing immobilized hCAII. The moment of sample injection was selected as the zero-time point, where both the time and MP-SPR response were set to zero. Processed data were globally fitted to a simple 1:1 interaction model using TraceDrawer software (version 1.9.2, Ridgeview Instruments AB, Sweden) to obtain kinetic parameters.
A general note: In SPR one partner is held on a chip, and binding of the other changes the refractive index at the surface.

The subject of data set [6] is albino rabbits. The arrangement: method as in PMID 31515057, PMID 34274401. The settings on record: cited from earlier work.
A further data set deals with albino rats. The arrangement: method as in PMID 25481859. The conditions noted are these: cited from earlier work.
For data set [7], the system named is albino rabbits (New Zealand White). Put plainly: IOP study in albino rabbits after single eye drop. It is filed as in vivo, rabbit. The settings on record: for AUC0-last ± SD in albino rabbits (IOP decrease vs time): single 25 μL eye drop, CAI 0.5 or 1.0%, dorzolamide 2%, n = 5. As to the method: (§1) Five 3–5 months old albino (New Zealand White, all females) and five 3–6 months old pigmented rabbits (Chinchilla Bastard, 1 male and 4 females) were purchased from Charles River Laboratories, UK and Germany, respectively. Prior to the experiments, the rabbits were habituated to handling, and the baseline values of IOP were measured. During the experiments, rabbits weighed 2.4–4.0 kg.
First, stock solutions of CAIs (250 mg/mL) in dimethyl sulfoxide (Sigma-Aldrich, Germany) were prepared. These stock solutions were diluted with PBS (pH 7.4) to obtain 1 mg/mL (0.1%) or 10 mg/mL (1%) solutions. Water-solubility of the compounds was enhanced with 2-hydroxypropyl-β-cyclodextrin (Sigma-Aldrich, Germany) (Table 1).
(§2) The CAI solutions were tested in albino rabbits (eye drops of 0.1, and 0.5 or 1.0%) and in pigmented rabbits (0.5 or 1.0%). The novel CAI concentrations in solutions were determined based on the drug solubility with the aim to load the highest possible drug concentration to the single eye drop.
(§3) The IOP levels in the rabbits were measured with a tonometer (Tonometer Pro, Icare Finland Ltd.). After baseline IOP measurements, a single eye drop (25 μL) was applied to the left eye, whereas the right eye was not treated. After eye drop instillation, the eyelids were kept open manually for 1 min. The IOP was measured from both eyes of the rabbits at 0.5, 1, 2, 3, 4, 5, 6, 7, and 8 h after eye drop instillation. In the case of the pigmented rabbits, the measurements were continued until 10 h postinstillation, and further until the IOP had returned to the normal baseline.
(§4) The CAIs were tested in the same rabbits to minimize interindividual data variation. Washout periods of at least 3 days were used between instillation of different compounds. The experiments started always at 8 a.m. to eliminate bias due to diurnal IOP fluctuation. At each time point, the pressure was measured three times with the same eye, and the average values were calculated and used in data analysis.

Data set [8] relates to pigmented rabbits (Chinchilla Bastard). Put plainly: IOP study in pigmented rabbits after single eye drop. The data set is classed as in vivo, rabbit. The settings on record: for ratio (AUCpigm/AUCalbino) of IOP response: pigmented vs albino rabbits. As for the experimental part: as §1
First, stock solutions of CAIs (250 mg/mL) in dimethyl sulfoxide (Sigma-Aldrich, Germany) were prepared. These stock solutions were diluted with PBS (pH 7.4) to obtain 1 mg/mL (0.1%) or 10 mg/mL (1%) solutions.
as §2
Baseline IOP of pigmented rabbits was raised with two intravitreal triamcinolone acetonide injections (Triesence 40 mg/mL, Novartis Finland Ltd.) with 1 week interval to each eye. This method[25],[26] may induce ocular hypertension even up to 60 days in rabbits.[25]
The rabbits were anesthetized with 0.4 mg/kg, s.c. medetomidine (Domitor vet 1 mg/mL, Orion Pharma, Espoo, Finland) and 20 mg/kg s.c. ketamine (Ketaminol vet 50 mg/mL, Pfizer Oy Animal Health, Espoo, Finland). Mydriasis was induced with topical tropicamide eyedrops (Oftan Tropicamid 5 mg/mL, Santen Pharmaceutical Co., Ltd., Tampere, Finland) and the ocular surface was anesthetized with oxybuprocaine eye drop (Oftan Obucain 4 mg/mL, Santen Pharmaceutical Co., Ltd., Tampere, Finland). Thereafter, intravitreal injection of triamcinolone acetonide (100 μL) was given with a 31G needle and syringe. After injection, the eyes were moisturized with carbomer gel (Viscotears 2 mg/g, Dr. Gerhard Mann chem.-pharm. Fabrik GmbH, Berlin, Germany) and the anesthesia was antagonized with 1 mg/kg atipamezole s.c. (Antisedan vet 5 mg/mL, Orion Pharma, Espoo, Finland).
After the second injection, IOP was allowed to settle for 10 days before the experiments were performed. […] Induction of ocular hypertension is presented in Appendix Figure 3. The IOP-lowering effects of the molecules were investigated sequentially, each test initiating once baseline IOP levels was attained.
as §3, §4

Data set [9] has as its target recombinant human carbonic anhydrase II. The arrangement: method as in earlier work. The settings on record: stopped flow kinetics protocol; read-out: Ki against hCA II; cited from earlier work.
In data set [10] the test system is pigmented rabbits. The arrangement: method as in PMID 37130851. The settings on record: intracameral injections; cited from earlier work.
The mark [11] stands for this setting: melanin nanoparticles 0.5 mg/mL, read-out: Kd ± confidence (melanin binding).
[12] abbreviates: Appendix table 1, Nano or Pico detector, read-out: Melanin binding affinity Kd ± confidence.

Where two headings read alike, the source gives them in different places. Bounds are passed on as bounds.

`CCN[C@H]1CN(CCCOC)S(=O)(=O)c2sc(S(N)(=O)=O)cc21` [Brinzolamide]: in [1], the absolute ocular bioavailability is given as 0.10%.

For orientation: Kd means the equilibrium constant for the complex coming apart. Regarding `CN1[C@@H]2CC[C@H]1C[C@@H](OC(=O)C(CO)c1ccccc1)C2` (some centres unmarked) [Atropine], in [2] (setting [11]), the Kd came to 758 ± 848 µM. Also, the “duration of mydriatic effect” value with albino rabbits [3] was 43.5 h; with pigmented rabbits [4] it was above 96 h.

Take `CC(=NNc1ccc(S(N)(=O)=O)cc1)c1cnc2ccccc2n1` [A17]: the Kd in data set [2] (setting [12]) was determined as 483 ± 137 µM. Besides, in data set [5], the ka is given as 0.13 ± 0.05 10^6 M^–1 s^–1, the kd was 1.27 ± 0.11 10^–2 s^–1 and the Kd was determined as 0.113 ± 0.0507 µM.

Consider `CCN[C@H]1C[C@H](C)S(=O)(=O)c2sc(S(N)(=O)=O)cc21` [Dorzolamide, reference compound], for which the Melanin binding classification result in data set [2] was “intermediate (intermediate (65–650 μM))”. Further, the “duration of IOP-responses” value in the data set with albino rabbits [6] was around 6 h; in the data set with albino rats, around 4 h. Besides, the “duration of IOP decrease” value in [7] (albino rabbits, single eye drop (0.5–1% CAI, 2% dorzolamide)) was below 8 h. The “AUC0-last ± SD in albino rabbits (IOP decrease vs time)” value in [7] is 15.55 ± 10.64 mmHg x h. Further, in data set [8] (Chinchilla Bastard rabbits with normal (low) ocular pressure, before triamcinolone), the “IOP reduction in normotensive pigmented rabbits” value was “no IOP reduction”.

On to `CC(=NNc1ccc(S(N)(=O)=O)cc1)c1cncc(Br)c1` [A19], for which the Kd in data set [2] (setting [12]) stood at 561 ± 299 µM. In [5], the ka is on record as 0.15 ± 0.04 10^6 M^–1 s^–1, the kd is reported as 2.25 ± 0.02 10^–2 s^–1 and the dissociation constant Kd came to 0.161 ± 0.041 µM.

For orientation: Ki means a dissociation constant, usually derived from enzyme kinetics or from competition with a known ligand. Turning to `NS(=O)(=O)c1ccc(-n2ncc(N3CCOCC3)cc2=O)cc1` [A22], the Melanin binding classification entry in data set [2] is on record as “low (low binders (>650 μM))”. In addition, the “AUC0-last ± SD in albino rabbits (IOP decrease vs time)” value in data set [7] was 10.50 ± 8.73 mmHg x h. Moreover, in data set [8] (hypertensive (triamcinolone) rabbits, single 25 μL eye drop, CAI 0.5 or 1.0%, dorzolamide 2%, n = 5), the “AUC0-last ± SD in pigmented rabbits (IOP decrease vs time)” value is 88.10 ± 63.04 mmHg × h. The “ratio (AUCpigm/AUCalbino) of IOP response” value in data set [8] was 8.4. In addition, the inhibition constant (Ki) in [9] was 0.55 ± 0.01 nM.

As for `NS(=O)(=O)c1ccc(-n2ncc(N3CCCCCC3)cc2=O)cc1` [A12], the Melanin binding classification entry in data set [2] was “intermediate (intermediate (65–650 μM))”. In addition, the Kd in [2] (setting [11]) was determined as 176 ± 159 µM. Moreover, the “AUC0-last ± SD in albino rabbits (IOP decrease vs time)” value in data set [7] is 13.80 ± 10.06 mmHg x h. Moreover, the “ratio (AUCpigm/AUCalbino) of IOP response” value in data set [8] came to 9.0. Also, the Ki in data set [9] was 0.06 ± 0.001 nM.

With `CC(=NNc1ccc(S(N)(=O)=O)cc1Br)c1cccnc1` [A15], the Kd in data set [2] (setting [12]) was 230 ± 85 µM. Also, in [5], the ka is recorded as 0.43 ± 0.25 10^6 M^–1 s^–1, the kd is recorded as 1.25 ± 0.43 10^–2 s^–1 and the Kd stood at 0.046 ± 0.0298 µM.

Regarding `Brc1c(NC2=NCCN2)ccc2nccnc12` [Brimonidine, reference compound], the Melanin binding classification entry in data set [2] is reported as “high (high (<65 μM))”. The Kd in data set [2] (setting [11]) worked out at 25 µM. Moreover, in the data set with pigmented rabbits [10], the “duration of IOP decrease” value is 7 days.
